Measurements: patent US20050244891A1, “Ligand-containing micelles and uses thereof” (Applera Corporation, priority 2003, published 2005)
The star is where a group is joined. K(dye2) = lysine labeled with dye2 = 5-carboxy-2′,7′-dipyridyl-sulfonefluorescein; K(tet) = lysine labeled with tet = 2′,7′,4,7-tetrachloro-5-carboxy fluorescein; Heptadecanoyl = CCCCCCCCCCCCCCCCC(=O)*; Pentadecanoyl = CCCCCCCCCCCCCCC(=O)*; Palmitoyl = CCCCCCCCCCCCCCCC(=O)*; Tridecanoyl = CCCCCCCCCCCCC(=O)*; AEEA = NCCOCCOCC(=O)O

Columns and labels:
[1] = normalized: phenylalanine 100, glycine 0; cited from earlier work
[2] = cited from earlier work
PKA = test: Fluorescence of micelle with signal molecule upon treatment with protein kinase (Table 19); format: biochemical; conditions: Conc 8 uM; for RFUs at 10 uL (final): after kinase; for RFUs at 10 uL (initial): before kinase
Text: (§1) Table 19 also provides the specific protein kinase that can be used to modify each of these signal molecules, as well as the fluorescence observed with a micelle comprising the signal molecules upon treatment with the specified protein kinase.

Akt = test: as above; format: biochemical; conditions: Conc 8 uM
Text: as §1

PKC = test: as above; format: biochemical; conditions: for RFUs at 10 uL (final): after kinase; for RFUs at 10 uL (initial): before kinase
Text: as §1

Src, lyn, fyn = test: as above; format: biochemical; conditions: Conc 8 uM
Text: as §1

MAPKAP2 = MAPKAP2 (Homo sapiens, UniProt P49137); test: as above; format: biochemical; conditions: Conc 8 uM
Sequence of MAPKAP2 (P49137 whole entry): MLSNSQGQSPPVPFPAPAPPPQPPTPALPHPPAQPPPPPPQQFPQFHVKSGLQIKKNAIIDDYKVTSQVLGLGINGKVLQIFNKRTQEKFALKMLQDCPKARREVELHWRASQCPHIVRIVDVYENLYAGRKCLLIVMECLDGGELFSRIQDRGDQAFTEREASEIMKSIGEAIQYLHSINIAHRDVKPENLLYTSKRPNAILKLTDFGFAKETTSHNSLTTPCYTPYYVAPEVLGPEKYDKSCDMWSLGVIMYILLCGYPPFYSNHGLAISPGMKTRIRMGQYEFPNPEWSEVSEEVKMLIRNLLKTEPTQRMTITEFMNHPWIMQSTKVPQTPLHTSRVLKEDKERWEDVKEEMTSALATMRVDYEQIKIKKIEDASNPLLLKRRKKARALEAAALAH
Text: as §1

MAPK = test: as above; format: biochemical; conditions: Conc 16 uM
Text: as §1

O=C(O)[C@@H]1CCCN1 [Proline (P), Proline]
Monera et al. Hydrophobicity (pH 2) [1]: −46

N[C@@H](CO)C(=O)O [Serine (S), Serine]
Side chain pKa [2]: ˜13

C[C@@H](O)[C@H](N)C(=O)O [Threonine (T), Threonine]
Side chain pKa [2]: ˜13

C13-K(dye2)-LRRASLG-NH2: peptide-dye signal molecule for PKA; dye2 = 5-carboxy-2′,7′-dipyridyl-sulfonefluorescein, C-terminus amidated ({Tridecanoyl-K(dye2)}-LRRASLG-NH2)
Fold increase (PKA): 5x | RFUs at 10 uL (final) (PKA): 5000 RFU | RFUs at 10 uL (initial) (PKA): 1000 RFU

C13-OOOK(dye2)-LRRASLG-NH2: peptide-dye signal molecule for PKA; O = 2-aminoethoxy-2-ethoxyacetyl linker, dye2 = 5-carboxy-2′,7′-dipyridyl-sulfonefluorescein ({Tridecanoyl-AEEA-AEEA-AEEA-K(dye2)}-LRRASLG-NH2)
Fold increase (PKA): 5x | RFUs at 10 uL (final) (PKA): 5000 RFU | RFUs at 10 uL (initial) (PKA): 1000 RFU

C15-OOOK(dye2)RPRTSSF-NH2: peptide-dye signal molecule for Akt; dye2 = 5-carboxy-2′,7′-dipyridyl-sulfonefluorescein ({Pentadecanoyl-AEEA-AEEA-AEEA-K(dye2)}-RPRTSSF-NH2)
Fold increase (Akt): 4x | RFUs at 10 uL (final) (Akt; after kinase): 7500 RFU | RFUs at 10 uL (initial) (Akt; before kinase): 1500 RFU

C16-OOOK(dye2)-RREGSFR-NH2: peptide-dye signal molecule for PKC; O = 2-aminoethoxy-2-ethoxyacetyl linker, dye2 = 5-carboxy-2′,7′-dipyridyl-sulfonefluorescein ({Palmitoyl-AEEA-AEEA-AEEA-K(dye2)}-RREGSFR-NH2)
Fold increase (PKC; Conc 4 uM): 4.5x | RFUs at 10 uL (final) (PKC; Conc 4 uM): 3000 RFU | RFUs at 10 uL (initial) (PKC; Conc 4 uM): 650 RFU

C16-OOOK(dye2)RIGEGTYGVVRR-NH2: peptide-dye signal molecule for Src, lyn, fyn; dye2 = 5-carboxy-2′,7′-dipyridyl-sulfonefluorescein ({Palmitoyl-AEEA-AEEA-AEEA-K(dye2)}-RIGEGTYGVVRR-NH2)
Fold increase (Src, lyn, fyn): 6.5x | RFUs at 10 uL (final) (Src, lyn, fyn; after kinase): 6500 RFU | RFUs at 10 uL (initial) (Src, lyn, fyn; before kinase): 1000 RFU

C16-OOOK(dye2)RLNRTLSV-NH2: peptide-dye signal molecule for MAPKAP2; dye2 = 5-carboxy-2′,7′-dipyridyl-sulfonefluorescein ({Palmitoyl-AEEA-AEEA-AEEA-K(dye2)}-RLNRTLSV-NH2)
Fold increase (MAPKAP2): 4x | RFUs at 10 uL (final) (MAPKAP2; after kinase): 3200 RFU | RFUs at 10 uL (initial) (MAPKAP2; before kinase): 800 RFU

C17-OOOK(dye2)PRTPGGR-NH2: peptide-dye signal molecule for MAPK; dye2 = 5-carboxy-2′,7′-dipyridyl-sulfonefluorescein ({Heptadecanoyl-AEEA-AEEA-AEEA-K(dye2)}-PRTPGGR-NH2)
Fold increase (MAPK): 5x | RFUs at 10 uL (final) (MAPK; after kinase): 5700 RFU | RFUs at 10 uL (initial) (MAPK; before kinase): 1100 RFU

C17-OOOK(tet)-RQGSFRA-NH2: peptide-dye signal molecule for PKC; tet = 2′,7′,4,7-tetachloro-5-carboxy fluorescein ({Heptadecanoyl-AEEA-AEEA-AEEA-K(tet)}-RQGSFRA-NH2)
Fold increase (PKC; Conc 6 uM): 7x | RFUs at 10 uL (final) (PKC; Conc 6 uM): 4900 RFU | RFUs at 10 uL (initial) (PKC; Conc 6 uM): 700 RFU
